Values of other authors, collected in patent US20030235609A1, “Use of cholinesterase antagonists to treat insulin resistance” (priority 2002, published 2003).

Test system: muscarinic receptor
Details: cats

| Structure (SMILES) | Dose required to produce a full insulin resistance (administered into the portal vein) | Dose achieving a similar degree of insulin resistance |
| --- | --- | --- |
| COc1ccccc1CNCCCCCCNCCCCCCCCNCCCCCCNCc1ccccc1OC [methoctramine] | 10^−6 μmol/kg |  |
| CN1CCN(CC(=O)N2c3ccccc3C(=O)Nc3cccnc32)CC1 [pirenzepine] |  | 10^7 mmol/kg |
